Data reported in patent publication US12286452B2, “Amphiphilic aminoglycoside connexin hemichannel inhibitors” (Texas Tech University System, priority 2018, dated 2025).
Converted amounts (≈) assume the structure as drawn. Read-outs that look alike come from different tables or passages of the source.

What was measured:
Cx43 HCs [1] = biological target: T1, Cx43 HCs (Homo sapiens, UniProt P17302); assay: Cx43-dependent growth complementation assay in E. coli LB2003; type: cell-based; details: for Cx43/Cx26 Selectivity: IC50 Cx26/IC50 Cx43
T1 construct: expressed in transfected cells

[2] = system: Staphylococcus aureus (ATCC25923); assay: Antibacterial assay (MIC); type: cell-based; details: read-out: MIC against S. aureus
Procedure: Antibacterial assay: The minimum inhibitory concentration (MIC) of the newly synthesized compounds was tested against E. coli (ATCC 25922) and Staphylococcus aureus (ATCC25923). The concentration of bacteria grown in Lysogeny Broth (LB) was adjusted to an absorbance at 600 nm (OD600) of 0.08-0.1 using LB. A series of 2-fold dilutions was made for each compound in 96-well plates (USA Scientific CC7682-7596) starting from 256 μg/mL, and then, 50 μL of the diluted bacteria suspension was transferred to the wells. Bacteria were incubated for 18-24 h at 35° C. before measuring OD600 to assess growth. Experiments for each compound were done at least in duplicates.

human Cx26 HCs [3] = biological target: T2, human Cx26 HCs (Homo sapiens, UniProt P29033); assay: Cx26-dependent growth complementation assay in E. coli LB2003; type: cell-based
T2 construct: expressed in transfected cells; host or cells: E. coli LB2003 (carrying pREP4), transformed with pQE-Cx26, IPTG-induced
Procedure: These derivatives were prepared by sequential benzylation and methylation followed by reduction of azido groups or hydrogenolysis of the Bn. […] Connexin HC inhibition was conducted using a bacteria-based assay of HC function^39. In this assay, Cx26 HCs are expressed in E. coli LB2003 cells, which lack three major K^+ uptake systems (Kdp, Kup and Trk), and as a result they cannot grow in low-[K^+] media^39-41. However, growth of this E. coli strain in low-[K^+] medium can be rescued by expression of K^+-permeable channels such as connexin HCs^39, 42-43. Under the conditions of the assay (LB2003 cells expressing HCs and grown in low-K^+ medium), inhibition of the HCs reduces or abolishes growth^39, 42-43. This is a simple assay where bacterial growth in multi-well plates can be followed by measuring the absorbance at 600 nm (OD600)^29.
LB2003 cells generously provided by Dr. E. P. Bakker (Osnabruk University, Osnabruk, Germany) were transformed with the plasmid pQE-Cx26 (human Cx26 into pQE60) and pREP4. […] LB2003 cells cannot grow in low-[K^+] media because of insufficient K^+ uptake for growth due to the knockout of three key K^+ transporters (Atrk, Akup, Akdp strain)^2-4. Details and validation of the growth complementation assay have been published recently^2. In brief, competent LB2003 containing the pREP4 plasmid were transformed with pQE-Cx26. These cells were grown overnight in Luria-Bertani medium (BD, Franklin Lakes, NJ, USA) supplemented with 100 mM KCl (to allow growth) and 0.4 mg/mL ampicillin, and then washed four times with NLM (see below), to remove residual K^+ from the Luria-Bertani medium. The washed cells were resuspended in complementation growth medium to an OD600 of 0.2. NLM contained 46 mM Na2HPO4, 23 mM NaH2PO4, 8 mM (NH4)2SO4, 0.4 mM MgSO4, 0.012 mM FeSO4, 1 mM sodium citrate, 44 mM glucose and 0.006 mM thiamine hydrochloride, pH 7.0. KLM had the same composition that NLM except for the equimolar replacement of Na^+ with K^+. For growth complementation we used NLM+4 mM KCl, and Cx26 expression was induced with 0.5 mM IPTG at the time of dilution to OD600=0.2. For the assay, the cells were seeded in 96-well plates and were incubated at 30° C., with shaking at 500 rpm. OD600 was measured after 18-h incubation in a plate reader. The initial OD600=0.2 was subtracted for growth calculations. Data are presented as means±SEM. Statistically significant differences were calculated by the Student t-test for unpaired data. Data were obtained from at least 3 independent experiments, with 3 repeats per experiment.

Cx43 HCs [4] = biological target: T1, Cx43 HCs; details: cited from earlier work
human Cx26 HCs [5] = biological target: T2, human Cx26 HCs; details: commercial aminoglycosides, the 16th table, adapted from ref. 1; cited from earlier work
[6] = K46 members, the 20th table, read-out: IC50 (μM) against Cx43
[7] = first Table 2, read-out: IC50, inhibition of Cx26 by synthetic AGs
[8] = commercial aminoglycosides, the 16th table, adapted from ref. 1, read-out: Cx43 IC50
[9] = the 12th table, Hill fit, mean ± SEM, some n = 1, read-out: Cx43 IC50
[10] = 4″,6″-disubstituted AKs, Table 5, read-out: Cx43 IC50
[11] = 15 μM, KI members, the 23rd table, read-out: Cx43 % inhibition
[12] = 15 μM, Table 3, read-out: Cx243% inhibition
[13] = 15 μM, Table 6, read-out: Cx43 (% inhibition)
[14] = KI members, the 23rd table, read-out: Cx43 % inhibition
[15] = Table 3, read-out: Cx243% inhibition
[16] = Table 6, read-out: Cx43 (% inhibition)

T1 sequence (P17302 whole entry): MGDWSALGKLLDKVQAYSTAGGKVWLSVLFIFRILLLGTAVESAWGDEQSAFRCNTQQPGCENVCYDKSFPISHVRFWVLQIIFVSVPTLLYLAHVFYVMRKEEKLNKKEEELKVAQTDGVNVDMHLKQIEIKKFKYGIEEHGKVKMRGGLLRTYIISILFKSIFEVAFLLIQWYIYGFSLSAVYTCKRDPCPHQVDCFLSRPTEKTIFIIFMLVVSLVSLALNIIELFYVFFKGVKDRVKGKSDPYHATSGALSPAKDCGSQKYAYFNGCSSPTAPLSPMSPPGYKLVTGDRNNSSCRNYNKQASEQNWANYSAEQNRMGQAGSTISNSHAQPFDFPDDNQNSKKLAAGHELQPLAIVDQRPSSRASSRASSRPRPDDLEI

Row | Compound | IC50 (Cx43 HCs [1]; [6]) | IC50 (human Cx26 HCs [3]; [7]) | IC50 (Cx43 HCs [4]; [8]) | IC50 (human Cx26 HCs [5]) | inhibition at 15 µM (Cx43 HCs [1]; [11]) | inhibition at 15 µM (Cx43 HCs [1]; [12]) | inhibition at 15 µM (Cx43 HCs [1]; [13]) | inhibition at 50 µM (Cx43 HCs [1]; [14]) | inhibition at 50 µM (Cx43 HCs [1]; [15]) | inhibition at 50 µM (Cx43 HCs [1]; [16]) | inhibition at 15 µM (human Cx26 HCs [3]; Table 3) | inhibition at 15 µM (human Cx26 HCs [3]; Table 6) | inhibition at 50 µM (human Cx26 HCs [3]; Table 3) | inhibition at 50 µM (human Cx26 HCs [3]; Table 6) | other results
1 | NCC1OC(OC2C(N)CC(N)C(OC3OC(COCc4cccc(-c5ccccc5)c4)C(OCc4cccc(-c5ccccc5)c4)C(N)C3O)C2O)C(O)C(O)C1O (stereo not shown) [Compound 16, 4″,6″-Di-O-(3-phenylbenzyl)-kanamycin] | 5.5 ± 2 µM | 6.2 ± 0.7 µM |  |  |  |  |  |  |  |  |  |  |  |  | Cx43 Imax (Cx43 HCs [1]; the 13th table): 121 ± 25%; IC50 (Cx43 HCs [1]; the 13th table, read-out: Cx43 IC50): 5.5 ± 2 µM; MIC [2]: 16 mg/mL (≈ 19.6 mM); Cx26 Imax (human Cx26 HCs [3]; the 13th table): 102 ± 2%
2 | CN[C@@H]1[C@@H](O)[C@@H](O[C@@H]2[C@@H](O)[C@H](O[C@H]3O[C@H]([C@@H](C)O)[C@@H](O)[C@H](O)[C@H]3N)[C@@H](N)C[C@H]2N)OC[C@]1(C)O [Compound G418, G418] |  |  | 3 ± 0.8 µM | 0.44 ± 0.06 µM |  |  |  |  |  |  |  |  |  |  | Cx43/Cx26 Selectivity (Cx43 HCs [1]; the 16th table): 0.20
3 | NCC1OC(OC2C(N)CC(N)C(OC3OC(COCc4cccc5ccccc45)C(OCc4cccc5ccccc45)C(N)C3O)C2O)C(O)C(O)C1O (stereo not shown) [Compound 15, 4″,6″-Di-O-(1-naphthalenmethyl) kanamycin] | 15 µM | 6.6 ± 0.5 µM |  |  |  |  |  |  |  |  |  |  |  |  | Cx43 Imax (maximal inhibition) (Cx43 HCs [1]; the 12th table, Hill fit): 122%; IC50 (Cx43 HCs [1]; [9]): 15 µM; MIC [2]: 64 mg/mL (≈ 83.7 mM)
4 | NC[C@H]1O[C@H](O[C@H]2[C@H](O)[C@@H](O[C@@H]3O[C@H](COCc4ccc(F)cc4)[C@@H](OCc4ccc(F)cc4)[C@H](N)[C@H]3O)[C@H](N)C[C@@H]2N)[C@H](O)[C@@H](O)[C@@H]1O [Compound 13, 4″,6″-Di-O-(4-flurobenzyl) kanamycin] | 26.6 ± 7.8 µM | 8.1 ± 0.5 µM |  |  |  |  |  |  |  |  |  |  |  |  | IC50 (Cx43 HCs [1]; [10]): 26.6 ± 7.8 µM; Cx43/Cx26 Selectivity (Cx43 HCs [1]; Table 5): 0.30; Cx43 Imax (maximal inhibition) (Cx43 HCs [1]; the 12th table, Hill fit): 110 ± 33%; IC50 (Cx43 HCs [1]; [9]): 26.6 ± 7.8 µM; IC50 (human Cx26 HCs [3]; 4″,6″-disubstituted AKs, Table 5, read-out: Cx26 IC50): 8.1 ± 0.5 µM; IC50 (human Cx26 HCs [3]; K46 members, the 20th table, read-out: IC50 (μM) against Cx26): 8.1 ± 0.5 µM
5 | NC1CC(N)C(O[C@H]2OC(CNC(=O)c3cc(-c4ccccc4)nc4ccccc34)[C@@H](O)C(O)C2O)[C@H](O)C1OC1O[C@H](CO)C(O)C(N)[C@H]1O (stereo partly shown) [KI08] |  |  |  |  | 25.5 ± 7.1% | 25.5 ± 7.1% | 25.5 ± 7.1% | 51 ± 2.5% | 51 ± 2.5% | 51 ± 2.5% | 8.8 ± 2% | 8 ± 2% | 22.8 ± 2.2% | 22.8 ± 2.2% | 
6 | Neomycin |  |  | 45 ± 9 µM | 7.4 ± 1.3 µM |  |  |  |  |  |  |  |  |  |  | Cx43/Cx26 Selectivity (Cx43 HCs [1]; the 16th table): 0.16
7 | NC1CC(N)C(O[C@H]2OC(CNC(=O)CCCc3ccc4ccc5cccc6ccc3c4c56)[C@@H](O)C(O)C2O)[C@H](O)C1OC1O[C@H](CO)C(O)C(N)[C@H]1O (stereo partly shown) [KI09] |  |  |  |  | 43 ± 10.7% |  | > 50% | 56.8 ± 11% |  | 69.6 ± 7.5% | 36.9 ± 3.9% | 36.9 ± 3.9% | 79.2 ± 7.5% | 79.2 ± 7.5% | Cx43 inhibition (%) (Cx43 HCs [1]; 15 μM, Table 6, listed as 4e): 52.2 ± 8.8%; Cx43/Cx26 Selectivity (Cx43 HCs [1]; Table 7): 2,16; IC50 (Cx43 HCs [1]; Table 7, read-out: Cx43 IC50): 8.6 ± 1 µM; Cx43 Imax (Cx43 HCs [1]; the 15th table, second Cx43 column, sub-head and unit not given): 80.2 ± 7.0; IC50 (Cx43 HCs [1]; the 15th table, sub-head and unit inferred, read-out: Cx43 IC50): 8.6 ± 3 µM; Cx26 Imax (human Cx26 HCs [3]; the 15th table, Cx26, sub-head and unit not given): 95.3 ± 3.5; IC50 (human Cx26 HCs [3]; the 15th table, Cx26, unit not given (cf. the 22nd table), read-out: Cx26 IC50): 18.6 ± 2.1 µM
8 | COc1ccc(COCC2OC(OC3C(N)CC(N)C(OC4OC(CN)C(O)C(O)C4O)C3O)C(O)C(N)C2OCc2ccc(OC)cc2)cc1 (stereo not shown) [Compound 10, 4″,6″-Di-O-(4-methoxybenzyl) kanamycin] | 4.1 ± 1.5 µM | 13 ± 0.7 µM |  |  |  |  |  |  |  |  |  |  |  |  | IC50 (Cx43 HCs [1]; [10]): 4.1 ± 1.5 µM; Cx43/Cx26 Selectivity (Cx43 HCs [1]; Table 5, listed as 2b): 3.17; IC50 (Cx43 HCs [1]; [9]): 4.1 ± 1.5 µM
9 | NC[C@H]1O[C@H](O[C@H]2[C@H](O)[C@@H](O[C@H]3O[C@H](CO)[C@@H](O)[C@H](N)[C@H]3O)[C@H](N)C[C@@H]2N)[C@H](N)[C@@H](O)[C@@H]1O [Kanamycin B] |  |  | 24 ± 2 µM | 3.6 ± 0.9 µM |  |  |  |  |  |  |  |  |  |  | Cx43/Cx26 Selectivity (Cx43 HCs [1]; the 16th table): 0.15
10 | NC[C@H]1O[C@H](O[C@H]2[C@H](O[C@@H]3O[C@H](CO)[C@@H](O)[C@H]3O)[C@@H](O)[C@H](N)C[C@@H]2N)[C@H](N)[C@@H](O)[C@@H]1O [Ribostamycin] |  |  | > 200 µM | > 100 µM |  |  |  |  |  |  |  |  |  |  | 
11 | CCCCCCCCCC(=O)NCC1O[C@H](OC2C(N)CC(N)C(OC3O[C@H](CO)C(O)C(N)[C@H]3O)[C@H]2O)C(O)C(O)[C@@H]1O (stereo partly shown) [KI03] |  |  |  |  | 44.4 ± 5.3% | 44.4 ± 5.3% | 44.4 ± 5.3% | 53.5 ± 1.9% | 53.5 ± 1.9% | 53.5 ± 1.9% | 16.1 ± 3.2% | 16.1 ± 3.2% | 33.6 ± 3.8% | 33.6 ± 3.8% | 
12 | CCCCCCCC(=O)NCC1O[C@H](OC2C(N)CC(N)C(OC3O[C@H](CO)C(O)C(N)[C@H]3O)[C@H]2O)C(O)C(O)[C@@H]1O (stereo partly shown) [KI02] |  |  |  |  | 17 ± 5.2% | 17 ± 5.2% | 17 ± 5.2% | 37.2 ± 7.6% | 37.2 ± 7.6% | 37.2 ± 7.6% | 14 ± 2.1% | 14 ± 2.1% | 25.2 ± 2.3% | 25.2 ± 2.3% | 
13 | NCC1O[C@H](OC2C(N)CC(N)C(OC3O[C@H](CO)C(O)C(N)[C@H]3O)C2O)C(O)[C@@H](O)[C@@H]1O (stereo in doubt) [Kanamycin A, reference compound] |  |  |  |  |  | 15.6 ± 1.4% |  |  | 40.4 ± 1% |  | 49.7 ± 1.6% |  | 77.4 ± 1.8% |  | IC50 (Cx43 HCs [4]; approximate, text b120, read-out: IC50 for inhibition of Cx43 HCs): ~50 µM
